{"source": "patent EP1900360A1", "about": "“Homer a new target of treating psychiatric disorders” (Abbott GmbH & Co. KG, priority 1998, dated 2000)", "key": {"homer mRNA": {"tested_on": "homer mRNA", "test": "Homer gene expression in brain by in situ hybridization histochemistry", "format": "in vivo, Sprague-Dawley rats", "conditions": "for Homer gene expression induced by treatment with amphetamine: brain frontal cortex, amphetamine plus compound", "experimental": "Adult Sprague-Dawley rats (250 g) were maintained in normal environmental conditions with free access to food and water ab libitum. Animals were treated with haloperidol (0.5 and 5 mg/kg) or saline. Naive (non-treated) animals were used as additional controls. Animals were also treated with amphetamine or with amphetamine and MPEP or SIB-1893 as described in example 18b. The animals were sacrificed by decapitation 90 minutes after treatment. Whole brain was rapidly removed from the skull, frozen in dry ice and stored at -30°C. Rat brain sections (15 μm) were obtained at -20°C in a cryostat, mounted in gelatine-coated slides and stored at -30°C until used. Olygonucleotide sequences 40 base length were selected from the homer rat gene sequence published in the GENEBANK (accession number: U92079). Antisense oligonucleotide homerAT ([NT]) was complementary to bases 559 to 599. Antisense oligonucleotide homerBT ([NT]) was complementary to bases 894-934. The corresponding sense oligonucleotides (homerAS and homerBS) were used as control probes. Synthesis was performed in a 395 Applied Biosystems DNA Synthesizer. Purified oligonucleotides were dissolved in DEPC-treated water and stored at -30°C until use. Labelling of synthetic oligoprobes was performed using a deoxynucleotidyl-transferase (TdT) labelling kit (NEP-100, NEN, Bad-Homburg, Germany). Briefly, 5 pmol of probe were incubated (2 hr) with TdT (36 units) in presence of 50 pmol of (^35S] dATP (NEN) and Cl2Co. […] Labelling efficacy was checked by paper chromatography in phosphate buffer system. Homer gene expression in rat brain was studied using in situ hybridization techniques well known in the art. In situ hybridization was performed as previously described (Garcia-Ladona et al., 1994). Briefly, Tissue sections were fixed with paraformaldehyde in PBS and treated (min) with pronase (0.25 mg/l), rapidly washed, dehydrated by consecutive incubation with 60%, 80%, 90% and 100% ethanol, rapidly dried and used for hybridization. […]"}, "[1]": {"tested_on": "methamphetamine-induced hyperactivity", "test": "Methamphetamine antagonism (methamphetamine-induced hyperactivity, measurement of locomotor activity)", "format": "in vivo, Mice (NMRI)", "conditions": "drug ip 30 min prior to methamphetamine 1 mg/kg po; counts 15 to 60 min after start of measurement", "experimental": "Methamphetamine antagonism was tested by recording methamphetamine-induced hyperactivity (measurement of locomotor activity). Mice (NMRI, 21-26 g; female) received drug or vehicle, intraperitoneally, 30 min prior to methamphetamine (MET, 1 mg/kg po). Locomotor activity was recorded in cages equipped with light beams (2 mice/cage/dose) for 1 h, starting 30 min after MET. For calculation of drug effects the counts recorded during the time period of 15 to 60 min after start of the measurement were selected. The control value was calculated as the difference between the counts recorded for the methamphetamine group and the vehicle-treated group during the same time period."}, "cataleptic syndrome": {"tested_on": "cataleptic syndrome", "test": "Cataleptogenic effects (cataleptic syndrome, method of Wirth et al.)", "format": "in vivo, rats, Sprague-Dawley", "conditions": "dose 100 mg/kg ip; cataleptic animals / animals per dose; tested 30 to 300 min after administration", "experimental": "The cataleptic syndrome was tested according to the method described by Wirth et al. (Arch. Int. Pharmacodyn. Ther. 115, 1-31, 1958). The animals (male rats, Sprague-Dawley bodyweight 210-225 g; n/dose=4) were regarded as cataleptic if they remained in an abnormal posture for more than 15 sec, i.e. one foreleg an a 9-cm-high piece of cork. The animals were tested 30m 60, 120, 180 and 300 min after intraperitoneal administration of the test compound."}}, "data": [{"smiles": "Cc1cccc(C=Cc2ccccc2)n1", "note": "[BSF 470213, 2-methyl-6-(2-phenylethenyl)-pyridine]", "values": [{"measurement": "Homer gene expression induced by treatment with amphetamine", "setting": "homer mRNA", "value": "reduced"}, {"measurement": "Methamphetamine antagonism ED50", "setting": "[1]", "value": 53.4, "unit": "mg/kg ip"}, {"measurement": "Cataleptogenic effect [x/n] at dose [mg/kg ip]", "setting": "cataleptic syndrome", "value": "0/4 at dose 100"}]}, {"smiles": "Cc1cccc(C#Cc2ccccc2)n1.Cl", "note": "[BSF 470214, 2-methyl-8-(phenylethynyl)-pyridine hydrochloride]", "values": [{"measurement": "Homer gene expression induced by treatment with amphetamine", "setting": "homer mRNA", "value": "reduced"}, {"measurement": "Methamphetamine antagonism ED50", "setting": "[1]", "value": 51.2, "unit": "mg/kg ip"}, {"measurement": "Cataleptogenic effect [x/n] at dose [mg/kg ip]", "setting": "cataleptic syndrome", "value": "0/4 at dose 100"}]}, {"smiles": "O=C(CCCN1CCC(O)(c2ccc(Cl)cc2)CC1)c1ccc(F)cc1", "note": "[haloperidol]", "values": [{"measurement": "homer mRNA transcripts (in situ hybridization images)", "setting": "homer mRNA; haloperidol 0.5 and 5 mg/kg vs controls, rat brain, 90 minutes after treatment", "value": "higher levels in haloperidol treated animals than in controls"}]}]}
